From PMC7582476, “Discovery of Novel Indoleamine 2,3-Dioxygenase 1 (IDO1) and Histone Deacetylase 1 (HDAC1) Dual Inhibitors Derived from the Natural Product Saprorthoquinone” (Molecules, 2020)

Assays:
IDO1 = target: T1, IDO1 (Homo sapiens, UniProt P14902); assay: IDO1 enzymatic assay; type: biochemical; conditions: for inhibition at 10 µM: Tables 2 and 3, read-out: IDO1 % Inhibition at 10 μM (converted); for IC50: mean ± SD of at least two independent assays
T1 construct: No. 20160706
Protocol: (1) Prepare 100× compound of the final desired highest inhibitor concentration in reaction by 100% DMSO. For example, if compounds test at 10 μM, then prepare 1 mM of compound solution in this step. Then dilute compound with DMSO in 3-fold mode to obtain different concentrations. Mark as source plate. (2) Add 100 μL of 100% DMSO to column 1 and column 12 for background control and no compound high control respectively.
Transfer 2 μL of each well from the 96-well source plate to a 96-well assay plate.
• (3) Enzyme Reaction • Prepare 2× enzyme solution. Add IDO-1 in assay buffer. • Prepare 2× substrate solution. Add L-tryptophan, ascorbate, methylene blue, catalase in the assay buffer. • Assay plate already contains 2 μL of compound in 100% DMSO. • Transfer 2× enzyme solution to the assay plate. Add 100 μL of 2× enzyme solution to each well of the 96-well assay plate. • Incubate at room temperature for 10 min. • Transfer […] to each well of the 96-well assay plate. • Read OD321 kinetically by Spectramax (Molecular Devices, LLC, San Jose, CA, USA). • (4) Curve Fitting • Copy data from Spectramax program. Percent inhibition = (max-conversion)/(max − min) × 100. “max” stands for high control; “min” stands for low control. • Fit the data in XL-Fit to obtain IC50 values. Equation used is: Y = Bottom + (Top − Bottom)/(1 + 10^((LogIC50 − X) × Hill Slope)

HDAC1 = target: T2, HDAC1 (Homo sapiens, UniProt Q13547); assay: HDAC enzymatic assay; type: biochemical; conditions: mean ± SD of at least two independent assays
T2 construct: purchased BPS Bioscience Inc. 50051
T2 sequence (Q13547 whole entry): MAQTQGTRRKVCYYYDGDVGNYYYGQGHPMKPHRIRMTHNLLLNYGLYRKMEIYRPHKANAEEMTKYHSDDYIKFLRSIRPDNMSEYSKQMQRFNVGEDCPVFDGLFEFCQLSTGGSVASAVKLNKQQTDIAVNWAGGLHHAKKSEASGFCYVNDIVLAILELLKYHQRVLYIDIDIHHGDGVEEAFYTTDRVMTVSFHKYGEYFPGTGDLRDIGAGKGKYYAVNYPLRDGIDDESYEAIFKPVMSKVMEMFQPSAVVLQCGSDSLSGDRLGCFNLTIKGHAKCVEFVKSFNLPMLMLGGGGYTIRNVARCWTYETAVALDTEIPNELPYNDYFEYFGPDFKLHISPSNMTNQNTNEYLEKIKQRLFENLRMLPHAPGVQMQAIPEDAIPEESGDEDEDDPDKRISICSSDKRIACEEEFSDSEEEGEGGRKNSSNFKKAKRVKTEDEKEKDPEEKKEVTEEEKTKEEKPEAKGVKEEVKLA
Protocol: • (1) Prepare 1× assay buffer (modified Tris Buffer). • (2) Compound serial dilution: Transfer compounds to assay plate by Echo in 100% DMSO. The final fraction of DMSO is 1%. • (3) Prepare enzyme solution in 1× assay buffer. • (4) Add trypsin and Ac-peptide substrate in 1× assay buffer to make the substrate solution. • (5) Transfer 15 μL of enzyme solution to assay plate or for low control transfer 15 μL of 1× assay buffer. • (6) Incubate at room temperature for 15 min. • (7) Add 10 μL of substrate solution to each well to start reaction. • (8) Incubate at room temperature for 60 min. • (9) Read the plate on Synergy MX with excitation at 355 nm and emission at 460 nm. • (10) Curve fitting: Fit the data in Excel to obtain inhibition values using Equation (1).
Inh% = (Max − Signal)/(Max − Min) × 100(1)
Fit the data in XL-Fit to obtain IC50 values using Equation (2); Y = Bottom + (Top − Bottom)/(1 + 10^((LogIC50 − X) × Hill Slope))(2)
Y is %inhibition and X is compound concentration.

A549 cell line = assay: Anti-proliferation assay in A549 cell line (CellTiter-Glo); type: cell-based; conditions: Homo sapiens; A549 cells, 48 h, CTG assay
Protocol: Cell viability was measured by the CellTiter-Glo Luminescent (CTG) assay. A549 cells (ATCC, Cat. No.CCL-185) were seeded (2000 cells/well) in 96-well plates and cells were left to incubate at 37 °C for 24 h. After 24 h, prepare compounds with 5-fold dilution in DMSO to the compound plate (200-fold of the final concentration) and transfer 5 μL from the compound plate to 95 μL intermediate medium in the intermediate plate (10-fold of the final concentration). Then transfer 10 μL from the intermediate plate to the cell plates. The final DMSO is 0.5%. After continuing to incubate for 48 h, add 50 μL CTG reagent to each well and read luminescence according to CTG product manual.

T1 sequence (P14902 whole entry): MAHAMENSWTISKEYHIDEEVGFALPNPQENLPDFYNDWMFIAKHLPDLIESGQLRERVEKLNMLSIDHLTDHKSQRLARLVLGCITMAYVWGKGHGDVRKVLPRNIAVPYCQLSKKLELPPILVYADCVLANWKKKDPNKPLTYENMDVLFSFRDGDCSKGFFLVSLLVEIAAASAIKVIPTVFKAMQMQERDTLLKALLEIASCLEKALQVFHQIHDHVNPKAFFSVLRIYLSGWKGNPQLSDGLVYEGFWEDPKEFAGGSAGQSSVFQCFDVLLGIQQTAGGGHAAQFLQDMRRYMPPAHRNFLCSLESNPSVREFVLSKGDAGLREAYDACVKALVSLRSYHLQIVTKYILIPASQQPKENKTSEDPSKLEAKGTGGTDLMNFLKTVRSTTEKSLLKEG

Row | inhibition at 10 µM (IDO1) [%] | IC50 (IDO1) [µM] | IC50 (HDAC1) [µM] | IC50 (A549 cell line) [µM] | SMILES
1 | 88 | 0.72 ± 0.1 | > 100 | 17.8 | Cc1ccc2c(c1CCC(=O)Nc1ccccc1N)C(=O)C(=O)C(C(C)C)=C2 [Compound 27a, N-(2-Aminophenyl)-3-(6-isopropyl-2-methyl-7,8-dioxo-7,8-dihydronaphthalen-1-yl)propanamide]
2 | 80 | 0.58 ± 0.11 | 34.9 ± 0.75 | 19.1 | Cc1ccc2c(c1CCC(=O)NCCCC(=O)Nc1ccccc1N)C(=O)C(=O)C(C(C)C)=C2 [Compound 33b, N-(2-Aminophenyl)-4-(3-(6-isopropyl-2-methyl-7,8-dioxo-7,8-dihydronaphthalen-1-yl)propanamido)-butanamide]
3 | 56 |  | > 100 | > 20 | Cc1ccc2c(c1CCC(=O)Nc1ccc(F)cc1N)C(=O)C(=O)C(C(C)C)=C2 [Compound 27c, N-(2-amino-4-fluorophenyl)-3-(6-isopropyl-2-methyl-7,8-dioxo-7,8-dihydronaphthalen-1-yl)propanamide]
